Earlier results in US20240307482A1, “TOPICAL COMPOSITIONS” (Illustris Pharmaceuticals, Inc., priority 2019, published 2024).

Tested on: wrinkles
Conditions: formulations with 10% concentration acetyl hexapeptide; after 30 days of trial use

For acetyl hexapeptide-3, the “reduce the depth of wrinkles” value is given as “up to 30%”.
